Measurements taken from patent US8765728B2, “[1,5]-diazocin derivatives” (MelliTech, priority 2009, dated 2014).

Tested on: Min6 cell
Experiment: Insulin secretion response of beta cell line to formula I compounds (insulin ELISA)
Format: cell-based
Conditions: rank according to % increase versus control at most effective dose
Protocol: The secretory responses of beta cell lines to glucose were tested as described in Merglen et al. Endocrinology, (2004) 145(2):667-78.
Briefly, after incubation with compounds from formula I or control vehicle, cells were maintained for 2 hours in glucose-free culture medium. The cells were then washed twice and preincubated for 30 minutes at 37° C. in glucose-free Krebs-Ringer bicarbonate HEPES buffer (KRBH: 135 mM NaCl, 3.6 mM KCl, 5 mM NaHCO3, 0.5 mM NaH2PO4, 0.5 mM MgCl2, 1.5 mM CaCl2, and 10 mM HEPES, pH 7.4). BSA (0.1%) was added as an insulin carrier. Cells were subsequently washed with glucose-free KRBH and then incubated for 30 minutes at 37° C. in KRBH containing different concentrations of glucose. The reaction was stopped by placing the plates on ice; supernatants were collected to determine insulin secretion and cells were used for intracellular insulin content following acid-ethanol extraction. Insulin was measured by ELISA (Linco) according to the manufacturer's instructions.

| Compound | Insulin secretion (Min6 cell) Range 1 to 5 |
| --- | --- |
| COc1ccc2c(c1)CN(C1CC1)C(=O)CCN2CC(O)c1ccc2c(c1)OCCO2 (centres unmarked) [Compound 29, 5-cyclopropyl-1-(2-(2,3-dihydrobenzo[b][1,4]dioxin-6-yl)-2-hydroxyethyl)-8-methoxy-2,3,5,6-tetrahydrobenzo[b][1,5]diazocin-4(1H)-one] | 2 (2: 110-120% of control) |
| COc1cccc(C(O)CN2CCC(=O)N(C3CC3)Cc3cc(OC)ccc32)c1 (centres unmarked) [Compound 30, 5-cyclopropyl-1-(2-hydroxy-2-(3-methoxyphenyl)ethyl)-8-methoxy-2,3,5,6-tetrahydrobenzo[b][1,5]diazocin-4(1H)-one] | 1 (1: 90-110% of control) |
| COc1ccc2c(c1)CN(C1CC1)C(=O)CCN2CC(O)c1cccc(F)c1 (centres unmarked) [Compound 31, 5-cyclopropyl-1-(2-(3-fluorophenyl)-2-hydroxyethyl)-8-methoxy-2,3,5,6-tetrahydrobenzo[b][1,5]diazocin-4(1H)-one] | 1 (1: 90-110% of control) |
| COc1ccc(C(O)CN2CCC(=O)N(C3CC3)Cc3cc(OC)ccc32)cc1 (centres unmarked) [Compound 32, 5-cyclopropyl-1-(2-hydroxy-2-(4-methoxyphenyl)ethyl)-8-methoxy-2,3,5,6-tetrahydrobenzo[b][1,5]diazocin-4(1H)-one] | 3 (3: 120-140% of control) |
| COc1ccc2c(c1)CN(C1CC1)C(=O)CCN2CC(O)c1ccc(OC(F)(F)F)cc1 (centres unmarked) [Compound 33, 5-cyclopropyl-1-(2-hydroxy-2-(4-(trifluoromethoxy)phenyl)ethyl)-8-methoxy-2,3,5,6-tetrahydrobenzo[b][1,5]diazocin-4(1H)-one] | 2 (2: 110-120% of control) |
| COc1ccc2c(c1)CN(C1CC1)C(=O)CCN2CC(O)c1ccc(F)c(F)c1 (centres unmarked) [Compound 34, 5-cyclopropyl-1-(2-(3,4-difluorophenyl)-2-hydroxyethyl)-8-methoxy-2,3,5,6-tetrahydrobenzo[b][1,5]diazocin-4(1H)-one] | 1 (1: 90-110% of control) |
| O=C(CN1CCC(=O)N(C2CC2)Cc2cc(F)ccc21)c1ccccc1 [Compound 35, 5-cyclopropyl-8-fluoro-1-(2-oxo-2-phenylethyl)-2,3,5,6-tetrahydrobenzo[b][1,5]diazocin-4(1H)-one] | 1 (1: 90-110% of control) |
| COc1ccccc1C(=O)CN1CCC(=O)N(C2CC2)Cc2cc(F)ccc21 [Compound 36, 5-cyclopropyl-8-fluoro-1-(2-(2-methoxyphenyl)-2-oxoethyl)-2,3,5,6-tetrahydrobenzo[b][1,5]diazocin-4(1H)-one] | 2 (2: 110-120% of control) |
| COc1cccc(C(=O)CN2CCC(=O)N(C3CC3)Cc3cc(F)ccc32)c1 [Compound 37, 5-cyclopropyl-8-fluoro-1-(2-(3-methoxyphenyl)-2-oxoethyl)-2,3,5,6-tetrahydrobenzo[b][1,5]diazocin-4(1H)-one] | 4 (4: 140-170% of control) |
| COc1ccc(C(=O)CN2CCC(=O)N(C3CC3)Cc3cc(F)ccc32)cc1 [Compound 38, 5-cyclopropyl-8-fluoro-1-(2-(4-methoxyphenyl)-2-oxoethyl)-2,3,5,6-tetrahydrobenzo[b][1,5]diazocin-4(1H)-one] | 1 (1: 90-110% of control) |
| COc1ccc(OC)c(C(=O)CN2CCC(=O)N(C3CC3)Cc3cc(F)ccc32)c1 [Compound 39, 5-cyclopropyl-1-(2-(2,5-dimethoxyphenyl)-2-oxoethyl)-8-fluoro-2,3,5,6-tetrahydrobenzo[b][1,5]diazocin-4(1H)-one] | 3 (3: 120-140% of control) |
| O=C(CN1CCC(=O)N(C2CC2)Cc2cc(F)ccc21)c1ccc(F)cc1 [Compound 40, 5-cyclopropyl-8-fluoro-1-(2-(4-fluorophenyl)-2-oxoethyl)-2,3,5,6-tetrahydrobenzo[b][1,5]diazocin-4(1H)-one] | 3 (3: 120-140% of control) |
| O=C(CN1CCC(=O)N(C2CC2)Cc2cc(F)ccc21)c1cccc(F)c1 [Compound 41, 5-cyclopropyl-8-fluoro-1-(2-(3-fluorophenyl)-2-oxoethyl)-2,3,5,6-tetrahydrobenzo[b][1,5]diazocin-4(1H)-one] | 3 (3: 120-140% of control) |
| O=C(CN1CCC(=O)N(C2CC2)Cc2cc(F)ccc21)c1ccc(OC(F)(F)F)cc1 [Compound 42, 5-cyclopropyl-8-fluoro-1-(2-oxo-2-(4-(trifluoromethoxy)phenyl)ethyl)-2,3,5,6-tetrahydrobenzo[b][1,5]diazocin-4(1H)-one] | 1 (1: 90-110% of control) |
| O=C(CN1CCC(=O)N(C2CC2)Cc2cc(F)ccc21)c1ccc(F)c(F)c1 [Compound 43, 5-cyclopropyl-1-(2-(3,4-difluorophenyl)-2-oxoethyl)-8-fluoro-2,3,5,6-tetrahydrobenzo[b][1,5]diazocin-4(1H)-one] | 2 (2: 110-120% of control) |
| O=C(CN1CCC(=O)N(C2CC2)Cc2cc(F)ccc21)c1ccc(Cl)cc1 [Compound 44, 1-(2-(4-chlorophenyl)-2-oxoethyl)-5-cyclopropyl-8-fluoro-2,3,5,6-tetrahydrobenzo[b][1,5]diazocin-4(1H)-one] | 1 (1: 90-110% of control) |
| COc1ccc(OC)c(C(O)CN2CCC(=O)N(C3CC3)Cc3cc(F)ccc32)c1 (centres unmarked) [Compound 45, 5-cyclopropyl-1-(2-(2,5-dimethoxyphenyl)-2-hydroxyethyl)-8-fluoro-2,3,5,6-tetrahydrobenzo[b][1,5]diazocin-4(1H)-one] | 1 (1: 90-110% of control) |
| O=C1CCN(CC(O)c2ccc(F)cc2)c2ccc(F)cc2CN1C1CC1 (centres unmarked) [Compound 46, 5-cyclopropyl-8-fluoro-1-(2-(4-fluorophenyl)-2-hydroxyethyl)-2,3,5,6-tetrahydrobenzo[b][1,5]diazocin-4(1H)-one] | 2 (2: 110-120% of control) |
| O=C1CCN(CC(O)c2cccc(F)c2)c2ccc(F)cc2CN1C1CC1 (centres unmarked) [Compound 47, 5-cyclopropyl-8-fluoro-1-(2-(3-fluorophenyl)-2-hydroxyethyl)-2,3,5,6-tetrahydrobenzo[b][1,5]diazocin-4(1H)-one] | 2 (2: 110-120% of control) |
| O=C1CCN(CC(O)c2ccc(OC(F)(F)F)cc2)c2ccc(F)cc2CN1C1CC1 (centres unmarked) [Compound 48, 5-cyclopropyl-8-fluoro-1-(2-hydroxy-2-(4-(trifluoromethoxy)phenyl)ethyl)-2,3,5,6-tetrahydrobenzo[b][1,5]diazocin-4(1H)-one] | 2 (2: 110-120% of control) |
| O=C1CCN(CC(O)c2ccc(F)c(F)c2)c2ccc(F)cc2CN1C1CC1 (centres unmarked) [Compound 49, 5-cyclopropyl-1-(2-(3,4-difluorophenyl)-2-hydroxyethyl)-8-fluoro-2,3,5,6-tetrahydrobenzo[b][1,5]diazocin-4(1H)-one] | 5 (5: >170% of control) |
| O=C1CCN(CC(O)c2ccc(Cl)cc2)c2ccc(F)cc2CN1C1CC1 (centres unmarked) [Compound 50, 1-(2-(4-chlorophenyl)-2-hydroxyethyl)-5-cyclopropyl-8-fluoro-2,3,5,6-tetrahydrobenzo[b][1,5]diazocin-4(1H)-one] | 2 (2: 110-120% of control) |
| COc1ccc(OCC(O)CN2CCC(=O)N(C3CC3)Cc3cc(OC)ccc32)cc1 (centres unmarked) [Compound 51, 5-cyclopropyl-1-(2-hydroxy-3-(4-methoxyphenoxy)propyl)-8-methoxy-2,3,5,6-tetrahydrobenzo[b][1,5]diazocin-4(1H)-one] | 2 (2: 110-120% of control) |
| O=C1CCN(CC(O)COc2ccccc2)c2ccc(F)cc2CN1C1CC1 (centres unmarked) [Compound 52, 5-cyclopropyl-8-fluoro-1-(2-hydroxy-3-phenoxypropyl)-2,3,5,6-tetrahydrobenzo[b][1,5]diazocin-4(1H)-one] | 1 (1: 90-110% of control) |
| COc1ccc(OCC(O)CN2CCC(=O)N(C3CC3)Cc3cc(F)ccc32)cc1 (centres unmarked) [Compound 53, 5-cyclopropyl-8-fluoro-1-(2-hydroxy-3-(4-methoxyphenoxy)propyl)-2,3,5,6-tetrahydrobenzo[b][1,5]diazocin-4(1H)-one] | 1 (1: 90-110% of control) |
| COc1ccc2c(c1)CNC(=O)CCN2 [Compound 54, 8-methoxy-2,3,5,6-tetrahydrobenzo[b][1,5]diazocin-4(1H)-one] | 1 (1: 90-110% of control) |
| O=C(CN1CCC(=O)N(C2CC2)Cc2cc(F)ccc21)c1ccc2c(c1)OCCO2 [Compound 55, 5-cyclopropyl-1-(2-(2,3-dihydrobenzo[b][1,4]dioxin-6-yl)-2-oxoethyl)-8-fluoro-2,3,5,6-tetrahydrobenzo[b][1,5]diazocin-4(1H)-one] | 2 (2: 110-120% of control) |
| O=C(CN1CCC(=O)N(C2CC2)Cc2cc(F)ccc21)c1ccc(N2CCCC2)cc1 [Compound 56, 5-cyclopropyl-8-fluoro-1-(2-oxo-2-(4-(pyrrolidin-1-yl)phenyl)ethyl)-2,3,5,6-tetrahydrobenzo[b][1,5]diazocin-4(1H)-one] | 2 (2: 110-120% of control) |
| COc1ccccc1C(O)CN1CCC(=O)N(C2CC2)Cc2cc(F)ccc21 (centres unmarked) [Compound 57, 5-cyclopropyl-8-fluoro-1-(2-hydroxy-2-(2-methoxyphenyl)ethyl)-2,3,5,6-tetrahydrobenzo[b][1,5]diazocin-4(1H)-one] | 2 (2: 110-120% of control) |
